Data from paper PMC12903969, “Discovery of a Novel and Potent Kir4.1 Inhibitor as a Safe and Rapid‐Onset Antidepressant Agent in Mice” (Advanced Science, 2025).
Where a chain is given by its changes, count along the chain named. Several values for one entry are separate records, joined by “and”; a condition that tells them apart may be missing. Identical values can stand only once. Like-named read-outs stand apart in the source and are kept apart here.

What was measured:
[1] = test system: mice; test: Repeat-dose (14-day subacute) toxicity study
Method: The mice received daily treatments for 14 consecutive days and were monitored once daily for signs of toxicity. Individual body weights were measured daily throughout the observation period. At the end of this period, all mice were sacrificed and dissected. Macroscopic evaluation was performed, and the heart, liver, spleen, lungs, kidneys, and brain were excised for relative weight calculations. Representative organ fragments were embedded in formalin and paraffin, then fixed for subsequent histopathological analysis. Serum biochemical analyses included determination of creatinine, urea, alanine aminotransferase, and aspartate aminotransferase.

[2] = target: T1, Kir4.1 I159A (Homo sapiens, UniProt P78508, I159A); test: Whole-cell patch clamp, Kir4.1 point mutant I159A; assay type: cell-based
T1 construct: expressed in transfected cells; host or cells: CHO-K1
T1 sequence (P78508 1-379 I159A): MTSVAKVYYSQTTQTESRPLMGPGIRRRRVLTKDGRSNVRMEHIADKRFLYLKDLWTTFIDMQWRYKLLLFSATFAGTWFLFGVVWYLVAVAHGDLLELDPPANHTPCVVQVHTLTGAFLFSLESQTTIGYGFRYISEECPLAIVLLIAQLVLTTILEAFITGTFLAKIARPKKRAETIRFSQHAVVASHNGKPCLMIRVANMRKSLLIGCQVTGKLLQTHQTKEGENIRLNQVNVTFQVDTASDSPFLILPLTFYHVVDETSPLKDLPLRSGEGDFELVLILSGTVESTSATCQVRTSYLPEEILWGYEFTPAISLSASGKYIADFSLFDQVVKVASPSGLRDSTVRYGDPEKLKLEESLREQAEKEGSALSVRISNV
Method: Plasmids encoding WT human potassium channels Kir1.1, Kir2.1, Kir2.2, Kir4.1, and Kir4.2 were obtained from the Beijing Genomics Institute. All point mutations were constructed using the QuickChange II Site‐Directed Mutagenesis Kit (Stratagene) and subsequently verified by sequencing.
CHO‐K1 cells were maintained in DMEM/F12 growth medium containing 10% fetal bovine serum. Plasmids encoding the target genes (3600 ng) and enhanced green fluorescent protein (400 ng) were cotransfected into cells using Lipofectamine 2000 (Invitrogen) in accordance with the manufacturer's instructions. Cells were seeded onto poly‐d‐lysine (PDL)‐coated glass coverslips 1 h prior to electrophysiological recordings. All cells were cultured under standard conditions of 5% CO2 at 37 °C.
Whole‐cell patch‐clamp recordings were obtained either in transiently transfected CHO‐K1 cells or in primary cultured astrocytes at room temperature using standard patch‐clamp techniques with an Axopatch‐700B amplifier (Axon Instruments). The signals were filtered at 2 kHz and sampled at 20 kHz using the Digidata 1440A interface (Axon Instruments). The resistance of borosilicate glass pipettes was typically 2–4 MΩ when filled with the internal solution. Drug application was facilitated using a BPS perfusion system (ALA Scientific Instruments). Macroscopic currents generated by expressed potassium channels were recorded under the voltage‐clamp conditions with an internal pipette solution composed of (in mM): 140 KCl, 5 NaCl, 1 CaCl2, 1 MgCl2, 10 HEPES, and 10 EGTA, pH 7.2 adjusted with KOH. The external solution contained (in mM): 140 NaCl, 5 KCl, 2 CaCl2, 1 MgCl2, 10 glucose, and 10 HEPES, pH 7.4 adjusted with NaOH. Currents were elicited with a hyperpolarized voltage at −120 mV from the holding potential of −80 mV, followed by a ramp voltage depolarizing to +50 mV. Astrocytic resting membrane potentials were recorded under current‐clamp conditions (I = 0 pA) using standard internal and external solutions, determined immediately after achieving whole‐cell mode.

[3] = target: T2, Kir4.1 (Homo sapiens, UniProt P78508); test: Whole-cell patch clamp, Kir4.1 currents in transfected CHO-K1 cells; assay type: cell-based; conditions: for inhibition at 1 µM: CHO-K1, 1 μM; for inhibition at 10 µM: CHO-K1, 10 μM; for IC50: whole-cell patch clamp
T2 construct: host or cells: CHO-K1
T2 sequence (P78508 1-379): T1 sequence (P78508 1-379 I159A) with A159I
Procedure, shortened: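 Transiently transfected CHO-K1 cells (with EGFP), whole-cell voltage clamp at room temperature; pipette 140 mM KCl pH 7.2, bath 140 mM NaCl/5 mM KCl pH 7.4. Currents evoked from −80 mV holding by a step to −120 mV then ramp to +50 mV; compounds applied by perfusion.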

[4] = test system: C57BL/6J mice after CSDS; test: Chronic social defeat stress (CSDS) model, sucrose preference test; assay type: in vivo; conditions: single i.p. injection 10 mg kg−1
Method: The 10‐day CSDS paradigm was conducted as previously described.^[ [24] ^] CD‐1 aggressive mice were singly housed in defeat cages on one side of a perforated plexiglass partition 24 h before the defeat session. Experimental C57BL/6J mice were placed daily on the resident cage side of a novel CD‐1 aggressor that rapidly initiated a physical attack on the intruder. After 10‐min of social defeat, the intruder mice were housed on the opposite side of the partition within a shared home cage, experiencing further sensory contact for the subsequent 24 h. In contrast, control mice were maintained in their home cages and allowed to explore the empty defeat cages for 10 min each day.
Mice were individually housed with two identical bottles containing either 1% sucrose solution or tap water for 24 h. The bottles were then replaced to eliminate potential positional bias, followed by an additional 24‐h period with the same solutions. Subsequently, the mice were provided with tap water for 24 h. During the experimental phase, new bottles filled with either 1% sucrose solution or tap water were presented for 24 h, and the bottles were changed every 12 h. The bottles were weighed both before and after the 24‐h test to assess consumption of each solution.

[5] = 100 mg/kg, 14-day, individual animals
[6] = organ weight index, 100 mpk, 14-day, individual animals, 100 mg/kg

## c1ccc2c(c1)oc1ccc(Nc3ccnc(NCCCN4CCOCC4)n3)cc12 [JX3212, N^4-(dibenzo[b,d]furan-2-yl)-N^2-(3-morpholinopropyl)pyrimidine-2,4-diamine]
[1]; 100 mg kg−1 i.p., 14 days
  histomorphology of liver, spleen, kidneys, HE staining (in words): no pronounced pathological changes
  serum creatine level (in words): slight decrease in creatine levels
[1]; 100 mg kg−1 i.p., 14 days, n = 6
  mortality, body weight, organ-to-body weight ratio (in words): No mortality or significant changes in body weight
[1]; [5]
  ALT: 24 and 28 and 22 and 33 and 30 and 36
  AST: 77 and 98 and 90 and 81
  Cr: 23 and 24 and 31 and 22
[1]; 100 mpk, day 1, individual animals
  Body weight: 24.7 and 25 (2×) and 25.5
[1]; 100 mpk, day 2, individual animals
  Body weight: 24.3 and 25 and 24.7 and 23.4 (2×) and 24.2
[1]; 100 mpk, day 3, individual animals
  Body weight: 25 (2×) and 23.6 and 23.7 and 24.2 and 23.8
[1]; 100 mpk, day 4, individual animals
  Body weight: 23.4 and 25 and 24.7 and 25.4 and 24 (2×)
[1]; 100 mpk, day 5, individual animals
  Body weight: 25 and 23.3 and 24.7 (2×) and 25.4
[1]; 100 mpk, day 6, individual animals, in g (unit assumed)
  Body weight: 24.7 and 23.4 and 25 and 25.8 and 24.4
[1]; 100 mpk, day 7, individual animals, in g (unit assumed)
  Body weight: 25.1 and 23.1 and 25.2 and 25.3 and 23.9 and 24.5
[1]; 100 mpk, day 8, individual animals
  Body weight: 24.6 (2×) and 23.2 and 24 and 24.9 and 22.8
[1]; 100 mpk, day 9, individual animals
  Body weight: 23.2 and 23 and 24.8 (2×) and 23.5 and 25
[1]; 100 mpk, day 10, individual animals, in g (unit assumed)
  Body weight: 23.6 and 22.9 and 24.4 and 24.1
[1]; 100 mpk, day 11, individual animals, in g (unit assumed)
  Body weight: 24.4 and 23.3 and 23.8
[1]; 100 mpk, day 12, individual animals, in g (unit assumed)
  Body weight: 24.4 and 23.7 and 24.2 and 23.3
[1]; 100 mpk, day 13, individual animals
  Body weight: 24.3 and 24.1 (2×) and 23.6 and 25.7 and 23.4
[1]; 100 mpk, day 14, individual animals, in g (unit assumed)
  Body weight: 24.1 and 23.8 and 26.2 and 24.4 and 22.9 and 24
[1]; [6]
  Brain: 1.903 and 1.921 and 1.682 and 2.001 and 1.79 and 1.878
  Heart: 0.4606 and 0.4848 and 0.4887 and 0.4129 and 0.4371 and 0.4527
  Kidney: 1.532 and 1.538 and 1.4509 and 1.426 and 1.403 and 1.554
  Liver: 6.39 and 5.873 and 5.169 and 5.3375 and 6.082 and 6.251
  Lung: 0.6629 and 0.6646 and 0.5455 and 0.5464 and 0.7241 and 0.5883
  Spleen: 0.4787 and 0.4556 and 0.409 and 0.4522 and 0.473 and 0.3725
[2]; 3 µM, mean ± SEM, read-out: current inhibition, Kir4.1 I159A
  inhibition at 3 µM: 43.9 ± 6.15%
[2]; JX3212 3 µM (Fig 2D)
  Mutation: I159A inhibition, single recordings: 52.8569 and 40.7357 and 46.4245 and 36.569
[2]; JX3212 3 µM (Fig 2D), read-out: Mutation: I159A inhibition, single recordings
  inhibition at 3 µM: 42.9%
[3]; CHO-K1, 0.5 μM, +50 mV, read-out: Kir4.1 Inhibition ± SD (%) at 0.5 μM, +50 mV
  inhibition at 0.5 µM: 82.8 ± 1.51%
[3]; CHO-K1, 0.5 μM, -120 mV, read-out: Kir4.1 Inhibition ± SD (%) at 0.5 μM, -120 mV
  inhibition at 0.5 µM: 73.2 ± 3.59%
[3]; CHO-K1, 0.5 µM, read-out: Kir4.1 inhibition at 0.5 µM
  inhibition at 0.5 µM: > 60%
[3]; +50 mV, read-out: Kir4.1 Inhibition ± SD (%) at 1 μM, +50 mV
  inhibition at 1 µM: 82.5 ± 5.51%
[3]; -120 mV, read-out: Kir4.1 Inhibition ± SD (%) at 1 μM, -120 mV
  inhibition at 1 µM: 84.5 ± 3.09%
[3]; CHO-K1, 3 µM, mean ± SEM, read-out: current inhibition, Kir4.1 WT
  inhibition at 3 µM: 92.4 ± 2.25%
[3]; +50 mV, read-out: Kir4.1 Inhibition ± SD (%) at 10 μM, +50 mV
  inhibition at 10 µM: 96 ± 1.52%
[3]; -120 mV, read-out: Kir4.1 Inhibition ± SD (%) at 10 μM, -120 mV
  inhibition at 10 µM: 97.3 ± 1.01%
[3]; CHO-K1, JX3212 3 µM (Fig 2A), read-out: Kir isoforms: Kir4.1 inhibition, single recordings
  inhibition at 3 µM: 94.9%
[3]; CHO-K1, JX3212 3 µM (Fig 2D), read-out: Mutation: Kir4.1 WT inhibition, single recordings
  inhibition at 3 µM: 92.1%
[3]; JX3212 3 µM (Fig 2A)
  Kir isoforms: Kir4.1 inhibition, single recordings: 94.131 and 95.7029
[3]; JX3212 3 µM (Fig 2D)
  Mutation: Kir4.1 WT inhibition, single recordings: 94.7739 and 90.2954
[3]; Kir4.1 IC50 ratio
  improvement in target activity over lead EHop-016: 2.6 fold
[3]; CHO cells transiently expressing Kir4.1, +50 mV, read-out: IC50 for Kir4.1 inhibition (+50 mV, outward currents)
  IC50: 190 nM
[3]; CHO cells transiently expressing Kir4.1, −120 mV, read-out: IC50 for Kir4.1 inhibition (−120 mV, inward currents)
  IC50: 280 nM
[4]
  CSDS: sucrose preference in SPT (in words): nonsignificant increase in the sucrose preference ratio
